For experiment [1], the target named is T1, oestrogen receptor (Bos taurus, UniProt P49884).
T1 construct: oestrogen receptor of a calf's uterus; from tissue; host or cells: calf uterus
T1 sequence (P49884 1-596): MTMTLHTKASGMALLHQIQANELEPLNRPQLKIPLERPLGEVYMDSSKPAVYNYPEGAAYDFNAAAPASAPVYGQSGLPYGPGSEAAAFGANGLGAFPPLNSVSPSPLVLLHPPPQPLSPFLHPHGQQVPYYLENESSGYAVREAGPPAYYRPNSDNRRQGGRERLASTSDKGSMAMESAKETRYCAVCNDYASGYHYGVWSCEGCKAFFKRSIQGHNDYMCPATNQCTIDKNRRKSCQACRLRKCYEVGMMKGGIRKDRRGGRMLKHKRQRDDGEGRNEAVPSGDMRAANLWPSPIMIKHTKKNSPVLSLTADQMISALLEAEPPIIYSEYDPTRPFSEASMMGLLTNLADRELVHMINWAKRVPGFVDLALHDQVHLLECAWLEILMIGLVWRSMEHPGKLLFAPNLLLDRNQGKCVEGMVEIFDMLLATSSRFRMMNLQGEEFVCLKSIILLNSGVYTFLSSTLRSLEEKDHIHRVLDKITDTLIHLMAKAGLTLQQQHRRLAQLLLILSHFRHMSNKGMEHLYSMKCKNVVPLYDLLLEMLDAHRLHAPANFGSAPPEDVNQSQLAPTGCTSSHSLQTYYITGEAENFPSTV
In words: Relative bonding affinity to the oestrogen receptor (competition with 3H-17β-Estradiol). It is filed as binding, calf. Particulars: for RBA* (relative bonding affinity to the oestrogen receptor): calves' uteri, in relation to 17β-estradiol = 100. From the text: The test methodology is described in Cancer Treatment Reviews 1984, 11, 147.
*Relative bonding affinities to the oestrogen receptor of calves' uteri,
in relation to 17β-estradiol = 100

The subject of experiment [2] is uterus of infantile mice. In words: Uterotrophic test (in-vivo test on infantile mice). Particulars: uterus dry weight (mg)/body weight (g) × 100. As to the method: (§1) The effectiveness of these compounds was found in an in-vivo test on infantile mice. This test is extensively described in Cancer Treatment Reviews 1984, 11, 147, and J. Med. Chem., 1984, 27, 1439.
(§2) ^a dosage/animal, administered s.c. on three consecutive days in oliv
(§3) ^b uterus dry weight (mg)/body weight (g) × 100, determined 24
(§4) hours after the final injection.

For experiment [3], the system named is uterus of infantile mice. In words: Anti-uterotrophic test (in-vivo test on infantile mice). Particulars: simultaneous 0.4 μg oestron/animal/day; for anti-uterotrophic test, effect: uterus dry weight (mg)/body weight (g) × 100. As to the method: as §1, §2, §3, §4
^c simultaneous administration of 0.4 μg oestron/animal/day.

Experiment [4] concerns human MCF-7 mamma carcinoma cells. Description: Effect on cell growth of MCF-7 cells. The following applies: for activity at 10 µM / activity at 1 µM / activity at 0.1 µM / activity at 5 µM: Homo sapiens, MCF7, mean of 16 individual results, read-out: T/C (corrected); for activity at 10 µM: 1 × 10^-5 M; for activity at 1 µM: 1 × 10^-6 M; for activity at 0.1 µM: 1 × 10^-7 M; for activity at 5 µM: 5 × 10^-6 M. It is filed as cell-based.
Description: Data given as corrected T/C values (%).
^a Inhibiting effect on MCF7 cells: quotient of optical densities fro
standard deviation through error reckoning according to GAUSS.
^b Substance concentration (mol/1) in incubation medium.
^c Significant p < 0.01 in relation to control group (C).

[5] abbreviates: 1 μg/animal s.c. on three consecutive days.
Where [6] appears, read: 5 μg/animal s.c. on three consecutive days.
Where [7] appears, read: 25 μg/animal s.c. on three consecutive days.
Setting [8] is: 125 μg/animal s.c. on three consecutive days.

Regarding `CCc1c(-c2ccc(O)cc2)oc2cc(O)ccc12` [Compound 62b, 3-ethyl-6-hydroxy-2-(4-hydroxyphenyl)benzo[b]furan], in experiment [1], the “RBA* (relative bonding affinity to the oestrogen receptor)” value is recorded as 0,6. Further, the “uterotrophic test, effect” value in experiment [2] (setting [5]) amounted to 12.9 ± 2.5 mg/g × 100; in experiment [2] (setting [6]) it was 14.5 ± 3.7 mg/g × 100; in experiment [2] (setting [7]) it was 17.0 ± 3.3 mg/g × 100; in experiment [2] (setting [8]), 18.3 ± 6.3 mg/g × 100. For the same molecule, the “anti-uterotrophic test, inhibition” value in experiment [3] (125 μg/animal s.c.) was 12%. In addition, the “anti-uterotrophic test, effect” value is given as 60.3 ± 5.8 mg/g × 100 in experiment [3] (5 μg/animal s.c.), 56.9 ± 7.1 mg/g × 100 in experiment [3] (25 μg/animal s.c.) and 49.8 ± 7.9 mg/g × 100 in experiment [3] (125 μg/animal s.c.).

As for `Oc1ccc(-c2sc3cc(O)ccc3c2CCCCCCN2CCCCC2)cc1` [Compound 119b, 6-hydroxy-2-(4-hydroxyphenyl)-3-(6-N-piperidinylhexyl)benzo[b]thiophen], the “RBA* (relative bonding affinity to the oestrogen receptor)” value in experiment [1] is 7,1. Further, the “uterotrophic test, effect” value in experiment [2] (setting [5]) is given as 19.8 ± 3.1 mg/g × 100. In experiment [2] (setting [6]), the “uterotrophic test, effect” value came to 20.7 ± 5.0 mg/g × 100. The “uterotrophic test, effect” value in experiment [2] (setting [7]) is on record as 19.4 ± 2.1 mg/g × 100. Besides, the “uterotrophic test, effect” value in experiment [2] (setting [8]) is 34.2 ± 9.5 mg/g × 100. In addition, in experiment [3] (5 μg/animal s.c.), the “anti-uterotrophic test, inhibition” value is listed as 73% and the “anti-uterotrophic test, effect” value turned out to be 26.1 ± 5.4 mg/g × 100. In experiment [3] (25 μg/animal s.c.), the “anti-uterotrophic test, inhibition” value is reported as 65% and the “anti-uterotrophic test, effect” value is given as 22.8 ± 2.6 mg/g × 100. Besides, in experiment [3] (125 μg/animal s.c.), the “anti-uterotrophic test, inhibition” value was 61% and the “anti-uterotrophic test, effect” value is recorded as 30.0 ± 5.6 mg/g × 100. Besides, in experiment [4], the “effect on the growth of MCF-7 / hormone-dependent tumour cells, in words” value was “strongly inhibiting effect”; the activity at 10 µM is -13.5 ± 3.2%; the activity at 1 µM is 48.1 ± 12.4%; the activity at 0.1 µM was 18.8 ± 7.2%. In addition, in experiment [4], the activity at 5 µM was determined as 2 ± 3.6%.

On to `Cc1c(-c2ccc(O)cc2)sc2cc(O)ccc12` [Compound 102b, 6-hydroxy-2-(4-hydroxyphenyl)-3-methylbenzo[b]thiophen], for which the “RBA* (relative bonding affinity to the oestrogen receptor)” value in experiment [1] is 9,7. Moreover, the “uterotrophic test, effect” value in experiment [2] (setting [5]) turned out to be 10.9 ± 2.1 mg/g × 100. Moreover, the “uterotrophic test, effect” value in experiment [2] (setting [6]) worked out at 12.1 ± 1.9 mg/g × 100. For the same molecule, the “uterotrophic test, effect” value in experiment [2] (setting [7]) came to 16.9 ± 2.9 mg/g × 100. Also, in experiment [2] (setting [8]), the “uterotrophic test, effect” value is 21.9 ± 4.6 mg/g × 100. In addition, in experiment [3] (5 μg/animal s.c.), the “anti-uterotrophic test, inhibition” value is on record as 7% and the “anti-uterotrophic test, effect” value was found to be 47.0 ± 7.8 mg/g × 100. For the same molecule, in experiment [3] (25 μg/animal s.c.), the “anti-uterotrophic test, inhibition” value turned out to be 30% and the “anti-uterotrophic test, effect” value was found to be 38.5 ± 3.7 mg/g × 100. For the same molecule, in experiment [3] (125 μg/animal s.c.), the “anti-uterotrophic test, inhibition” value is given as 31% and the “anti-uterotrophic test, effect” value came to 38.1 ± 5.8 mg/g × 100. Besides, in experiment [4], the “effect on the growth of MCF-7 / hormone-dependent tumour cells, in words” value was “strongly inhibiting effect”; the activity at 10 µM came out at 10.9 ± 6.7%; the activity at 1 µM came to 133 ± 43.4%; the activity at 0.1 µM was found to be 125 ± 37.2%. Further, in experiment [4], the activity at 5 µM was 54.9 ± 17.9%.

Consider `Oc1ccc(-c2oc3ccc(O)cc3c2CCCCCCN2CCCCC2)cc1` [Compound 68a, 5-hydroxy-2-(4-hydroxyphenyl)-3-(6-N-piperidylhexyl)benzo[b]furan], for which the “RBA* (relative bonding affinity to the oestrogen receptor)” value in experiment [1] is 4,3. Moreover, the “uterotrophic test, effect” value in experiment [2] (setting [5]) is 16.1 ± 2.1 mg/g × 100; in experiment [2] (setting [6]), 17.3 ± 2.9 mg/g × 100; in experiment [2] (setting [7]) it was 15.8 ± 1.9 mg/g × 100; in experiment [2] (setting [8]), 17.3 ± 3.2 mg/g × 100. The figures for the “anti-uterotrophic test, inhibition” value in experiment [3] (5 μg/animal s.c.), in experiment [3] (25 μg/animal s.c.) and in experiment [3] (125 μg/animal s.c.) were 55%, 56% and 48%, respectively. The “anti-uterotrophic test, effect” value turned out to be 38.1 ± 7.5 mg/g × 100 in experiment [3] (5 μg/animal s.c.), 37.6 ± 6.2 mg/g × 100 in experiment [3] (25 μg/animal s.c.) and 41.8 ± 6.4 mg/g × 100 in experiment [3] (125 μg/animal s.c.). In addition, the “effect on the growth of MCF-7 / hormone-dependent tumour cells, in words” value in experiment [4] is “strongly inhibiting effect”. Besides, the activity at 10 µM in experiment [4] is -9.9 ± 1.8%. Also, in experiment [4], the activity at 1 µM worked out at 51.6 ± 10.2%. For the same molecule, in experiment [4], the activity at 0.1 µM came to 64.4 ± 12%. For the same molecule, in experiment [4], the activity at 5 µM was found to be 10.4 ± 4.8%.

On to `Oc1ccc(-c2oc3cc(O)ccc3c2CCCCCCN2CCCCC2)cc1` [Compound 68b, 6-hydroxy-2-(4-hydroxyphenyl)-3-(6-N-piperidylhexyl)benzo[b]furan], for which, in experiment [1], the “RBA* (relative bonding affinity to the oestrogen receptor)” value is given as 5,4. The “uterotrophic test, effect” value in experiment [2] (setting [5]) worked out at 18.3 ± 1.9 mg/g × 100; in experiment [2] (setting [6]), 18.8 ± 3.0 mg/g × 100; in experiment [2] (setting [7]), 24.4 ± 3.8 mg/g × 100; in experiment [2] (setting [8]), 21.4 ± 3.7 mg/g × 100. Besides, the results for the “anti-uterotrophic test, inhibition” value in experiment [3] (5 μg/animal s.c.) and in experiment [3] (25 μg/animal s.c.) were 10% and 7%, respectively. Besides, the “anti-uterotrophic test, effect” value in experiment [3] (5 μg/animal s.c.) is recorded as 58.6 ± 7.1 mg/g × 100; in experiment [3] (25 μg/animal s.c.), 59.9 ± 6.6 mg/g × 100; in experiment [3] (125 μg/animal s.c.), 68.7 ± 9.9 mg/g × 100. Moreover, the activity at 10 µM in experiment [4] was -9.6 ± 2.9%. In addition, the activity at 1 µM in experiment [4] worked out at 42.9 ± 7.7%. In addition, in experiment [4], the activity at 0.1 µM came out at 58.7 ± 17.1%. The activity at 5 µM in experiment [4] is 12.1 ± 5.4%.

Turning to `CCCc1c(-c2ccc(O)cc2)oc2ccc(O)cc12` [Compound 63a, 5-hydroxy-2-(4-hydroxyphenyl)-3-propylbenzo[b]furan], in experiment [1], the “affinity to the oestrogen (estradiol) receptor, in words” value is recorded as “greatest affinity in relation to estradiol” and the “RBA* (relative bonding affinity to the oestrogen receptor)” value was 20,0. In experiment [4], the “effect on the growth of MCF-7 / hormone-dependent tumour cells, in words” value was “strongly inhibiting effect”; the activity at 10 µM is -2.1 ± 2.8%; the activity at 1 µM worked out at 50.5 ± 8.8%; the activity at 0.1 µM was determined as 51 ± 11.3%. Moreover, the activity at 5 µM in experiment [4] is -0.1 ± 3.6%.

For `CC/C(=C(\c1ccccc1)c1ccc(OCCN(C)C)cc1)c1ccccc1` [Tam, Tamoxifen, reference compound], in experiment [4], the activity at 10 µM was -5.7 ± 3.4%, the activity at 1 µM came to 59.1 ± 14.1% and the activity at 0.1 µM was determined as 56.5 ± 16.3%.

In the case of `Cc1c(-c2ccc(O)cc2)oc2cc(O)ccc12` [Compound 61b, 6-hydroxy-2-(4-hydroxyphenyl)-3-methylbenzo[b]furan], in experiment [1], the “RBA* (relative bonding affinity to the oestrogen receptor)” value is reported as 0,2.

As for `CCCCc1c(-c2ccc(O)cc2)oc2ccc(O)cc12` [Compound 64a, 3-butyl-5-hydroxy-2-(4-hydroxyphenyl)benzo[b]furan], the “RBA* (relative bonding affinity to the oestrogen receptor)” value in experiment [1] is given as 1,6.

Regarding `CCCCc1c(-c2ccc(O)cc2)oc2cc(O)ccc12` [Compound 64b, 3-butyl-6-hydroxy-2-(4-hydroxyphenyl)benzo[b]furan], the “RBA* (relative bonding affinity to the oestrogen receptor)” value in experiment [1] was 0,6.

For the molecule `Cc1c(-c2ccc(O)cc2)oc2ccc(O)cc12` [Compound 61a], the “RBA* (relative bonding affinity to the oestrogen receptor)” value in experiment [1] is recorded as 2,0. Moreover, in experiment [4], the “effect on the growth of MCF-7 / hormone-dependent tumour cells, in words” value is “strongly inhibiting effect”; the activity at 10 µM came to 13.3 ± 5.3%; the activity at 1 µM was found to be 78.1 ± 17.2%; the activity at 0.1 µM was 72.3 ± 18.2%. Also, in experiment [4], the activity at 5 µM worked out at 37.7 ± 11.9%.

With `CCCc1c(-c2ccc(O)cc2)oc2cc(O)ccc12` [Compound 63b, 6-hydroxy-2-(4-hydroxyphenyl)-3-propylbenzo[b]furan], the “RBA* (relative bonding affinity to the oestrogen receptor)” value in experiment [1] was 1,7.

For the origin of these results see patent US5470854A, “2-phenylbenzo[B]furans, process for their manufacture and pharmaceutical preparations containing them” (Schering Aktiengesellschaft, priority 1991, dated 1995).
